Measured values published in US7786308B2 (priority 2005, dated 2010).
Where two headings read alike, the source gives them in different places.

What was measured:
Experiment in all cases: cell-based
M2 muscarinic receptor = biological target: T1, M2 muscarinic receptor (Homo sapiens, UniProt P08172); settings: for Emax: read-out: M2 Efficacy
T1 construct: expressed in transfected cells; host or cells: CHO (M2-CHO)
T1 sequence (P08172 1-466): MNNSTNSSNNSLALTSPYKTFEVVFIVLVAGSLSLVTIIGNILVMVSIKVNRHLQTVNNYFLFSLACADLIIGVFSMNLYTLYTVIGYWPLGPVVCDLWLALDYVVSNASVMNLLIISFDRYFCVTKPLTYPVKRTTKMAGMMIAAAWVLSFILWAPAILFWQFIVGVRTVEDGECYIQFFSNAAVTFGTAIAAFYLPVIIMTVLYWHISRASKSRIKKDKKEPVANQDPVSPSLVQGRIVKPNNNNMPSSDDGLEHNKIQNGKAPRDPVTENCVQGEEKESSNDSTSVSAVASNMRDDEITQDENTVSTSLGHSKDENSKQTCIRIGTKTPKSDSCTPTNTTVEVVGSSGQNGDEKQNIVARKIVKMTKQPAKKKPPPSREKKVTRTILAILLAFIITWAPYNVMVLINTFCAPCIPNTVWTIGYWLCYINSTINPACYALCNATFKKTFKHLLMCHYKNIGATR

M4 muscarinic receptor = biological target: T2, M4 muscarinic receptor (Homo sapiens, UniProt P08173); settings: for Emax: read-out: M4 Efficacy
T2 construct: expressed in transfected cells; host or cells: CHO (M4-CHO)
T2 sequence (P08173 1-479): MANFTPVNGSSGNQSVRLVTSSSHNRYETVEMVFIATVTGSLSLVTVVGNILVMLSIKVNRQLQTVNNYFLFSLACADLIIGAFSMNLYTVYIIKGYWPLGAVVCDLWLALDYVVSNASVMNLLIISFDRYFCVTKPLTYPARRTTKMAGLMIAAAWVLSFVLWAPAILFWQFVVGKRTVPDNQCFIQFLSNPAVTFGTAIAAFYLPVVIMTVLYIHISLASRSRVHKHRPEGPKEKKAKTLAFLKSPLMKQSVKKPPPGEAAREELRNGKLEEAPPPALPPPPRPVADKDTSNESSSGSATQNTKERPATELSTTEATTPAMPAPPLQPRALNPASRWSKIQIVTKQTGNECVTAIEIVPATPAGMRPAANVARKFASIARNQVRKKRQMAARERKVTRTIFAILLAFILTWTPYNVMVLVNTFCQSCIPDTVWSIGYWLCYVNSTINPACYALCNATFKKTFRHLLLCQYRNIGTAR

M3 muscarinic receptor = biological target: T3, M3 muscarinic receptor (Homo sapiens, UniProt P20309); settings: for Emax: read-out: M3 Efficacy
T3 construct: expressed in transfected cells; host or cells: CHO (M3-CHO)

M1 muscarinic receptor = biological target: T4, M1 muscarinic receptor (Homo sapiens, UniProt P11229); settings: for Emax: read-out: M1 Efficacy
T4 construct: expressed in transfected cells; host or cells: CHO (M1-CHO)
T4 sequence (P11229 1-460): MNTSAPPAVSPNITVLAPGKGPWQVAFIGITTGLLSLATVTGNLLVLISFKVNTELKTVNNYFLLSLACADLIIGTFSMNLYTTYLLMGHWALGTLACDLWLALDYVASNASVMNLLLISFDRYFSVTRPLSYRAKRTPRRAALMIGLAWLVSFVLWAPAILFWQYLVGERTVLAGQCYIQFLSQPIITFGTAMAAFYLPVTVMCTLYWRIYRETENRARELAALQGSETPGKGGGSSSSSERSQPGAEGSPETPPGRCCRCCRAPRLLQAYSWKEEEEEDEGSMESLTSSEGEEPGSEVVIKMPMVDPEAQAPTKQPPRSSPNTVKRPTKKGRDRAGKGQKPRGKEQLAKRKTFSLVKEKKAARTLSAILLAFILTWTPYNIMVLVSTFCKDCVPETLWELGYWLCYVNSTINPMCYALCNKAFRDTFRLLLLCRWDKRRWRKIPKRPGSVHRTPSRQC

T3 sequence (P20309 whole entry): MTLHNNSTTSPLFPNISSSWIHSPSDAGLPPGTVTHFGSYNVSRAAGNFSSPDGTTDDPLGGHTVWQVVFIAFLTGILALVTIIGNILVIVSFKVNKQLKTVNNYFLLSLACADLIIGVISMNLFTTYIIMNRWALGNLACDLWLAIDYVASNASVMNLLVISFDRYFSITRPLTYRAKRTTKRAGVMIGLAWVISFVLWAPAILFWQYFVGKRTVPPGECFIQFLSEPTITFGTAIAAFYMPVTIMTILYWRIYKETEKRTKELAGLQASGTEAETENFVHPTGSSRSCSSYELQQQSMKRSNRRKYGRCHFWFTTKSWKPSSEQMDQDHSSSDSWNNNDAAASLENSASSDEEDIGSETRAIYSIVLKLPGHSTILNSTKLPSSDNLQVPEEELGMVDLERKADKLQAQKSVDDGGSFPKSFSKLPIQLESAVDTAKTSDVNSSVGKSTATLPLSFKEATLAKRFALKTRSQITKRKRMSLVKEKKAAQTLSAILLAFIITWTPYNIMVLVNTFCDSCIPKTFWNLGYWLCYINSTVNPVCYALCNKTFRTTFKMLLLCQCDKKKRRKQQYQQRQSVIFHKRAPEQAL

| SMILES | EC50 (M2 muscarinic receptor) [µM] | Emax (M2 muscarinic receptor) [%] | EC50 (M4 muscarinic receptor) [µM] | Emax (M4 muscarinic receptor) [%] | EC50 (M3 muscarinic receptor) [µM] | Emax (M3 muscarinic receptor) [%] | EC50 (M1 muscarinic receptor) [µM] | Emax (M1 muscarinic receptor) [%] | EC50 (M2 muscarinic receptor; read-out: M2 Activity) [µM] | EC50 (M4 muscarinic receptor; read-out: M4 Activity) [µM] | EC50 (M3 muscarinic receptor; read-out: M3 Activity) [µM] | EC50 (M1 muscarinic receptor; read-out: M1 Activity) [µM] | M2 Efficacy (M2 muscarinic receptor) | M4 Efficacy (M4 muscarinic receptor) | M3 Efficacy (M3 muscarinic receptor) | M1 Efficacy (M1 muscarinic receptor) |
| --- | --- | --- | --- | --- | --- | --- | --- | --- | --- | --- | --- | --- | --- | --- | --- | --- |
| CCOC(=O)N1C2CCC1CC(N1CCC(N(C)c3ccc(F)cc3)CC1)C2 (stereo not drawn) [Compound 9] | > 5 | < 25 | > 5 | 25 to 100 | > 5 | < 25 | > 5 | 25 to 100 | – | – | – | – | – | – | – | – |
| CCOC(=O)N1C2CCC1CC(N1CCC(N(C(C)=O)C3CCCC3)CC1)C2 (stereo not drawn) [Compound 15] | < 2 | 25 to 100 | < 2 | 25 to 100 | 2 to 5 | 25 to 100 | < 2 | 25 to 100 | – | – | – | – | – | – | – | – |
| CCCN(C1CCN(C2CC3CCC(C2)N3C(=O)OCC)CC1)S(=O)(=O)c1ccc(C(F)(F)F)cc1 (stereo not drawn) [Compound 19] | > 5 | < 25 | > 5 | < 25 | > 5 | < 25 | > 5 | < 25 | – | – | – | – | – | – | – | – |
| CCOC(=O)N1C2CCC1CC(N1CCC(N(CC(=O)CC)c3ccc(F)cc3)CC1)C2 (stereo not drawn) [Compound 20] | > 5 | < 25 | > 5 | < 25 | > 5 | < 25 | < 2 | 25 to 100 | – | – | – | – | – | – | – | – |
| CCOC(=O)N1C2CCC1CC(N1CCC(N(CC(=O)CC)c3ccc(F)cc3)CC1)C2 (stereo not drawn) [Compound 25] | – | – | – | – | – | – | – | – | > 5 | > 5 | > 5 | < 2 | – | – | – | – |
| CCOC(=O)N1C2CCC1CC(N1CCC(N(C)c3ccccc3)CC1)C2 (stereo not drawn) [Compound 27] | > 5 | < 25 | > 5 | < 25 | > 5 | < 25 | < 2 | 25 to 100 | – | – | – | – | – | – | – | – |
| CCOC(=O)N1C2CCC1CC(N1CCC(N(CC(C)C)S(=O)(=O)c3ccc(C(F)(F)F)cc3)CC1)C2 (stereo not drawn) [Compound 28] | > 5 | < 25 | > 5 | < 25 | > 5 | < 25 | > 5 | < 25 | – | – | – | – | – | – | – | – |
| CCOC(=O)N1C2CCC1CC(N1CCC(N(Cc3ccccc3)C(C)=O)CC1)C2 (stereo not drawn) [Compound 35] | > 5 | 25 to 100 | 2 to 5 | 25 to 100 | > 5 | 25 to 100 | < 2 | 25 to 100 | – | – | – | – | – | – | – | – |
| CCOC(=O)N1C2CCC1CC(N1CCC(N(CC)c3ccccc3)CC1)C2 (stereo not drawn) [Compound 37, 3-[4-(ethyl-phenyl-amino)-piperidin-1-yl]-8-azabicyclo[3.2.1]octane-8-carboxylic acid ethyl ester] | > 5 | < 25 | < 2 | < 25 | > 5 | < 25 | < 2 | 25 to 100 | – | – | – | – | – | – | – | – |
| CCOC(=O)N1C2CCC1CC(N1CCC(N(C(C)=O)C(C)C)CC1)C2 (stereo not drawn) [Compound 60] | > 5 | < 25 | > 5 | < 25 | > 5 | < 25 | 2 to 5 | 25 to 100 | – | – | – | – | – | – | – | – |
| CCOC(=O)N1C2CCC1CC(N1CCC(N(C(C)=O)C3CCCCC3)CC1)C2 (stereo not drawn) [Compound 63] | 2 to 5 | < 25 | < 2 | 25 to 100 | 2 to 5 | 25 to 100 | < 2 | 25 to 100 | – | – | – | – | – | – | – | – |
| CCOC(=O)N1C2CCC1CC(N1CCC(Nc3ccc(F)cc3)CC1)C2 (stereo not drawn) [Compound 64, 3-[4-(4-Fluoro-phenylamino)-piperidin-1-yl]-8-aza-bicyclo[3.2.1]octane-8-carboxylic acid ethyl ester] | > 5 | < 25 | > 5 | < 25 | > 5 | < 25 | 2 to 5 | 25 to 100 | – | – | – | – | – | – | – | – |
| CCOC(=O)N1C2CCC1CC(N1CCC(N(c3ccc(F)cc3)S(C)(=O)=O)CC1)C2 (stereo not drawn) [Compound 71, 3-{4-[(4-Fluoro-phenyl)-methanesulfonyl-amino]-piperidin-1-yl}-8-aza-bicyclo[3.2.1]octane-8-carboxylic acid ethyl ester] | > 5 | < 25 | 2 to 5 | 25 to 100 | > 5 | 25 to 100 | < 2 | 25 to 100 | – | – | – | – | – | – | – | – |
| CCOC(=O)N1C2CCC1CC(N1CCC3(CCC(=O)N3c3ccccc3)CC1)C2 (stereo not drawn) [Compound 88, Ethyl 3-(2-oxo-1-phenyl-1,8-diazaspiro[4.5]decan-8-yl)-8-azabicyclo[3.2.1]octane-8-carboxylate] | < 2 | – | < 2 | – | > 5 | – | < 2 | – | – | – | – | – | ++ (key: +++: efficacy was calculated to be greater than 100%; ++: efficacy was calculated to be from 100% to 25%; +: efficacy was calculated to be less than 25%; −: no data was available) | ++ (key: +++: efficacy was calculated to be greater than 100%; ++: efficacy was calculated to be from 100% to 25%; +: efficacy was calculated to be less than 25%; −: no data was available) | + (key: +++: efficacy was calculated to be greater than 100%; ++: efficacy was calculated to be from 100% to 25%; +: efficacy was calculated to be less than 25%; −: no data was available) | ++ (key: +++: efficacy was calculated to be greater than 100%; ++: efficacy was calculated to be from 100% to 25%; +: efficacy was calculated to be less than 25%; −: no data was available) |
